logP data for 35 compounds are collected here from the SangsterLogP compilation.

Test in one data set: not given
`O=C(c1c[nH]c2ccccc12)C(F)(F)F` had a lipophilicity (logP) of 3.44.

The compound `O=[N+]([O-])/C=C/c1cccs1` came in with a logP of 1.96.

For the compound `CCOC(=O)c1ccoc1`, the logP came to 1.78.

`O=CNc1ccc2[nH]ccc2c1` had a lipophilicity (logP) of 1.07.

With `CN(C)C(=O)c1ccco1`, the logP came out at 0.41.

`NC(=O)c1ccc2[nH]ccc2c1` yielded a lipophilicity (logP) of 0.87.

In turn, `CC(=O)C=Cc1ccco1` had a logP of 1.35.

Consider `O=[N+]([O-])C=Cc1ccco1`, for which the logP amounted to 1.56.

`Cc1cccc2cc[nH]c12` showed a lipophilicity (logP) of 2.56.

The compound `Clc1cccs1` came in with a lipophilicity (logP) of 2.54.

The compound `CCOC(=O)c1cc2ccccc2[nH]1` showed a logP of 3.18.

Compound `CC(=O)Oc1c[nH]c2ccccc12` registered a log partition coefficient (logP) of 2.01.

As for `Brc1ccoc1`, the lipophilicity (logP) came out at 2.18.

As to `Clc1cccc2cc[nH]c12`, the logP was determined as 3.25.

In turn, `N#Cc1ccc2cc[nH]c2c1` yielded a logP of 2.38.

`O=[N+]([O-])c1ccc2sccc2c1` registered a log partition coefficient (logP) of 2.92.

For `COC(=O)c1ccc2[nH]ccc2c1`, the log partition coefficient (logP) worked out at 2.58.

In turn, `CCOC(=O)c1c[nH]c2ccccc12` yielded a logP of 3.04.

`N#Cc1ccc2[nH]ccc2c1` registered a logP of 2.36.

For the compound `NC(=O)c1cccc2[nH]ccc12`, the log partition coefficient (logP) turned out to be 0.66.

Regarding `O=Cc1ccoc1`, the log partition coefficient (logP) worked out at 0.51.

`O=[N+]([O-])c1cccc2cc[nH]c12` gave a lipophilicity (logP) of 2.63.

In turn, `NCc1ccco1` registered a logP of 0.37.

The compound `CCOc1ccc2cc[nH]c2c1` had a logP of 2.53.

Regarding `COc1ccco1`, the logP came out at 1.44.

Turning to `N#Cc1cccc2[nH]ccc12`, the log partition coefficient (logP) is 2.46.

The next data set in a line: method code SF, from DOI: 10.1002/qsar.19890080404.
Regarding `NC(=S)c1cccs1`, the logP turned out to be 1.34.

`CCOC(=O)c1c[nH]cc1C` gave a logP of 2.05.

As for `N#Cc1ccc[nH]1`, the logP was 1.13.

`CC(=O)c1c[nH]c2ccccc12`: the lipophilicity (logP) turned out to be 2.06.

Compound `O=C(O)c1c[nH]c2ccccc12` came in with a log partition coefficient (logP) of 1.99.

Take `O=Cc1ccc[nH]1`: the logP amounted to 0.64.

Compound `CS(=O)(=O)c1cccs1` yielded a logP of 0.38.

Compound `CC(=O)Nc1ccc2[nH]c(C)cc2c1` yielded a lipophilicity (logP) of 1.22.

The compound `O=Cc1c[nH]c2ccccc12` registered a logP of 1.69.

Broadly, the logP is the decadic logarithm of the partition coefficient of the neutral form, usually between octanol and water. Read a low logP as lower lipophilicity.
